Converted amounts (≈) assume the structure as drawn.
Tested on: not listed separately
Experiment: Lipophilicity, log P of the compound
Format: physicochemical
Details: octanol/water

Row | logP | Structure (SMILES)
1 | 3 | N#Cc1c(NCCN2CCNCC2)sc(C(=O)c2ccc(Br)s2)c1N

Biological target: T1, Maternal embryonic leucine zipper kinase (Homo sapiens, UniProt Q14680)
Experiment: Inhibition of recombinant human MELK expressed in Escherichia coli at 5 uM using ZIPtide as substrate measured after 0.5 hrs by ADP-Glo assay relative to control
Details: not given
Target sequence in this assay (Q14680 whole entry, looked up): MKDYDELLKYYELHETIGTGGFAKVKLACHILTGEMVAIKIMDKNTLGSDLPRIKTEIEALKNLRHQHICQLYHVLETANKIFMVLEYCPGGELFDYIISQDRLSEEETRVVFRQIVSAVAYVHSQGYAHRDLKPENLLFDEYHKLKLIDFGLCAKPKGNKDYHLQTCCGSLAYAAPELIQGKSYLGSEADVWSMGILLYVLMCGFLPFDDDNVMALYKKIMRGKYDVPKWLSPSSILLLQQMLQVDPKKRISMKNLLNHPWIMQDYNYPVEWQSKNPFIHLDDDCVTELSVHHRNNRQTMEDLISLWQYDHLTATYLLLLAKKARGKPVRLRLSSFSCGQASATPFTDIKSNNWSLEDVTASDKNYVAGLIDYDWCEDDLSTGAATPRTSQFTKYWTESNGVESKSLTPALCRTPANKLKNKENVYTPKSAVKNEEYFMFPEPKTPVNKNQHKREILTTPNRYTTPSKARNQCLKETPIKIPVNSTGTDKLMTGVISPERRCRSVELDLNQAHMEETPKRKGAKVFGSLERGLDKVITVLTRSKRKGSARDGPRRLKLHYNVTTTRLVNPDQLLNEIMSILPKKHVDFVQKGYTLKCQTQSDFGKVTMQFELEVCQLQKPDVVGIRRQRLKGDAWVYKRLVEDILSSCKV

Row | inhibition [%] | Structure (SMILES)
2 | 47 | CC(C)Nc1sc(C(=O)c2ccccc2)c(N)c1C#N
3 | 49 | Cc1ccc(C(=O)c2sc(NC(C)C)c(C#N)c2N)cc1
4 | 46 | CC(C)Nc1nc(N)c(C(=O)c2ccc(Cl)s2)s1

Tested on: not listed separately
Experiment: Stability in mouse liver microsomes assessed as parent compound remaining after 1 hr
Format: ADME, Microsome
Details: read-out: Stability

Row | remaining at 1 h [%] | Structure (SMILES)
5 | 81 | N#Cc1c(NCCN2CCNCC2)sc(C(=O)c2ccc(Br)s2)c1N

Tested on: not listed separately
Experiment: Kinetic solubility of the compound in pH 7.4 phosphate buffer
Format: physicochemical
Details: read-out: Kinetic_solubility

Row | solubility kinetic [µg/mL] | Structure (SMILES)
6 | 189 (≈ 429 µM) | N#Cc1c(NCCN2CCNCC2)sc(C(=O)c2ccc(Br)s2)c1N

Biological target: T1, Maternal embryonic leucine zipper kinase
Experiment: Inhibition of recombinant human MELK expressed in Escherichia coli using ZIPtide as substrate measured after 0.5 hrs by ADP-Glo assay
Details: not given
Target sequence in this assay (Q14680 whole entry): as the sequence (Q14680 whole entry, looked up) above

Row | IC50 [nM] | Structure (SMILES)
7 | > 5000 | N#Cc1c(NCc2ccccc2)sc(C(=O)c2ccc(Cl)s2)c1N
8 | 1420 | CC(C)N(C)c1sc(C(=O)c2ccc(Cl)s2)c(N)c1C#N
9 | 1700 | CC(C)Nc1sc(C(=O)c2ccn[nH]2)c(N)c1C#N
10 | > 5000 | CC(=O)c1sc(NC(C)C)c(C#N)c1N
11 | > 5000 | CC(C)Nc1sc(C(=O)c2ccncc2)c(N)c1C#N
12 | > 5000 | COc1ccc(C(=O)c2sc3nc(C)ccc3c2N)cc1OC
13 | 599 | CC(C)Nc1sc(C(=O)c2cc(Br)cs2)c(N)c1C#N
14 | > 5000 | Cc1ccc(C(=O)c2sc3nc(C)ccc3c2N)cc1
15 | > 5000 | CC(C)Nc1sc(C(=O)c2ccc(Cl)s2)cc1C#N
16 | > 5000 | N#Cc1ccccc1Nc1sc(C(=O)c2ccc(Br)s2)c(N)c1C#N
17 | 4130 | COc1ccc(C(=O)c2sc(NC(C)C)c(C#N)c2N)cc1
18 | 1770 | COc1ccc(C(=O)c2sc(NC(C)C)c(C#N)c2N)cc1OC
19 | > 5000 | CC(C)Nc1sc(C(=O)c2ccc(C#N)cc2)c(N)c1C#N
20 | 350 | CC(C)Nc1sc(C(=O)c2ccc(-c3cccc(O)c3)s2)c(N)c1C#N
21 | 98 | N#Cc1c(NCCN2CCNCC2)sc(C(=O)c2ccc(Br)s2)c1N
22 | > 5000 | CC(C)Nc1nc(N)c(C(=O)c2ccc(Cl)s2)s1
23 | 112 | CC(C)Nc1sc(C(=O)c2ccc(I)s2)c(N)c1C#N
24 | 1190 | CCNc1sc(C(=O)c2cccs2)c(N)c1C#N

Row | IC50 [nM] | Structure (SMILES)
25 | 540 | N#Cc1c(NCC(N)=O)sc(C(=O)c2ccc(Br)s2)c1N
26 | 122 | CC(C)Nc1sc(C(=O)c2ccc(Br)s2)c(N)c1C#N
27 | 1120 | CC(C)Nc1sc(C(=O)c2ccc3c(c2)OCO3)c(N)c1C#N
28 | 638 | C=CCNc1sc(C(=O)c2ccc(Cl)s2)c(N)c1C#N
29 | > 5000 | CC(C)Nc1sc(C(=O)c2cccc(C#N)c2)c(N)c1C#N
30 | 241 | CC(C)Nc1sc(C(=O)c2ccc(-c3ccc(O)cc3)s2)c(N)c1C#N
31 | 494 | Cc1ccc(C(=O)c2sc(NC(C)C)c(C#N)c2N)s1
32 | 1350 | CC(C)Nc1sc(C(=O)c2ccco2)c(N)c1C#N
33 | 313 | N#Cc1c(NCCO)sc(C(=O)c2ccc(Br)s2)c1N
34 | 575 | CC(C)Nc1sc(C(=O)c2cc(Cl)cs2)c(N)c1C#N
35 | 269 | CC(C)Nc1sc(C(=O)c2ccc(-c3ccncc3)s2)c(N)c1C#N
36 | 141 | N#Cc1c(NCCCN)sc(C(=O)c2ccc(Br)s2)c1N
37 | 388 | CC(C)Nc1sc(C(=O)c2ccc(Cl)s2)c(N)c1C(N)=O
38 | > 5000 | C=CCNc1sc(C(=O)C(C)(C)C)c(N)c1C#N
39 | > 5000 | CC(C)Nc1sc(C(=O)c2cccnc2)c(N)c1C#N
40 | 707 | N#Cc1c(Nc2ccccc2F)sc(C(=O)c2ccc(Cl)s2)c1N
41 | 222 | CCNc1sc(C(=O)c2ccc(Cl)s2)c(N)c1C#N
